Results: US10597388B2, “Pyridazinone herbicides” (FMC CORPORATION, priority 2014, dated 2020)

Key:
Experiment in all cases: Test E greenhouse herbicide test, pre- and postemergence
Assay type in all cases: in vivo
[1] = test system: arrowleaf sida (Sida rhombifolia)
How it was run: (§1)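 Seeds were sown in silt loam and sprayed preemergence with compound in a non-phytotoxic solvent mix containing surfactant; for postemergence, plants at 2 to 18 cm (1- to 4-leaf stage) in peat-based potting medium were sprayed with the same formulation. After 14 to 21 d in a greenhouse, injury was rated visually against controls (0–100).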

corn (Zea mays) = test system: corn (Zea mays)
How it was run: as §1

[2] = test system: field bindweed (Convolvulus arvensis)
How it was run: as §1

[3] = test system: foxtail, giant (giant foxtail, Setaria faberii); details: Preemergence
How it was run: as §1

[4] = test system: foxtail, green (green foxtail, Setaria viridis); details: Preemergence
How it was run: as §1

[5] = test system: johnsongrass (Sorghum halepense); details: Preemergence
How it was run: as §1

[6] = test system: lambsquarters (Chenopodium album); details: Preemergence
How it was run: as §1

[7] = test system: momingglory (Ipomoea coccinea); details: Preemergence
How it was run: as §1

[8] = test system: nightshade (eastern black nightshade, Solanum ptycanthum); details: Preemergence
How it was run: as §1

[9] = test system: nutsedge, yellow (yellow nutsedge, Cyperus esculentus); details: Preemergence
How it was run: as §1

[10] = test system: panicum, fall (fall panicum, Panicum dichotomiflorum)
How it was run: as §1

[11] = test system: surinam grass (Brachiaria decumbens); details: Preemergence
How it was run: as §1

[12] = test system: velvetleaf (Abutilon theophrasti); details: Preemergence
How it was run: as §1

[13] = test system: waterhemp (common waterhemp, Amaranthus rudis)
How it was run: as §1

[14] = test system: wild poinsettia (Euphorbia heterophylla)
How it was run: as §1

[15] = 62 g ai/ha, Postemergence, scale 0 to 100 (0 no effect, 100 complete control)
[16] = 62 g ai/ha, Preemergence, scale 0 to 100 (0 no effect, 100 complete control)
[17] = 125 g ai/ha, Postemergence, scale 0 to 100 (0 no effect, 100 complete control)
[18] = 250 g ai/ha, Postemergence, scale 0 to 100 (0 no effect, 100 complete control)
[19] = Postemergence, 31 g ai/ha, visual, scale 0 no effect to 100 complete control
[20] = Preemergence, 31 g ai/ha, scale 0 to 100, 0 no effect, 100 complete control
[21] = Preemergence, 125 g ai/ha, visual, scale 0 no effect to 100 complete control
[22] = Preemergence, 250 g ai/ha, visual, scale 0 no effect to 100 complete control
[23] = 62 g ai/ha, scale 0 to 100 (0 no effect, 100 complete control)
[24] = 31 g ai/ha, scale 0 to 100, 0 no effect, 100 complete control
[25] = 125 g ai/ha, visual, scale 0 no effect to 100 complete control
[26] = 250 g ai/ha, visual, scale 0 no effect to 100 complete control
[27] = 125 g ai/ha, scale 0 to 100 (0 no effect, 100 complete control)
[28] = 125 g ai/ha, Preemergence, scale 0 to 100 (0 no effect, 100 complete control)

SMILES: CCc1sc2c(C)cc(C)cc2c1-c1c(O)c(C)nn(C)c1=O [Compound 57]
- Plant response rating, Arrowleaf Sida [1, 15]: 20
- Plant response rating, Arrowleaf Sida [1, 16]: 0
- Plant response rating, Arrowleaf Sida [1, 17]: 40
- Plant response rating, Arrowleaf Sida [1, 18]: 45
- Plant response rating, Arrowleaf Sida [1, 19]: 10
- Plant response rating, Arrowleaf Sida [1, 20]: 0
- Plant response rating, Arrowleaf Sida [1, 21]: 50
- Plant response rating, Arrowleaf Sida [1, 22]: 40
- Plant response rating, Corn (corn (Zea mays); [15]): 10
- Plant response rating, Corn (corn (Zea mays); [16]): 0
- Plant response rating, Corn (corn (Zea mays); [17]): 15
- Plant response rating, Corn (corn (Zea mays); [18]): 15
- Plant response rating, Corn (corn (Zea mays); [19]): 15
- Plant response rating, Corn (corn (Zea mays); [20]): 0
- Plant response rating, Corn (corn (Zea mays); [21]): 0
- Plant response rating, Corn (corn (Zea mays); [22]): 0
- Plant response rating, Field Bindweed [2, 15]: 95
- Plant response rating, Field Bindweed [2, 16]: 95
- Plant response rating, Field Bindweed [2, 17]: 98
- Plant response rating, Field Bindweed [2, 18]: 95
- Plant response rating, Field Bindweed [2, 19]: 85
- Plant response rating, Field Bindweed [2, 20]: 70
- Plant response rating, Field Bindweed [2, 21]: 98
- Plant response rating, Field Bindweed [2, 22]: 100
- Plant response rating, Foxtail, Giant [3, 23]: 35
- Plant response rating, Foxtail, Giant [3, 24]: 5
- Plant response rating, Foxtail, Giant [3, 25]: 95
- Plant response rating, Foxtail, Giant [3, 26]: 95
- Plant response rating, Foxtail, Green [4, 23]: 20
- Plant response rating, Foxtail, Green [4, 24]: 0
- Plant response rating, Foxtail, Green [4, 25]: 90
- Plant response rating, Foxtail, Green [4, 26]: 100
- Plant response rating, Johnsongrass [5, 23]: 30
- Plant response rating, Johnsongrass [5, 24]: 0
- Plant response rating, Johnsongrass [5, 25]: 30
- Plant response rating, Johnsongrass [5, 26]: 35
- Plant response rating, Lambsquarters [6, 23]: 100
- Plant response rating, Lambsquarters [6, 24]: 100
- Plant response rating, Lambsquarters [6, 25]: 100
- Plant response rating, Lambsquarters [6, 26]: 100
- Plant response rating, Morningglory [7, 23]: 40
- Plant response rating, Morningglory [7, 27]: 100
- Plant response rating, Morningglory [7, 24]: 85
- Plant response rating, Morningglory [7, 26]: 100
- Plant response rating, Nightshade [8, 23]: 98
- Plant response rating, Nightshade [8, 27]: 98
- Plant response rating, Nightshade [8, 24]: 90
- Plant response rating, Nightshade [8, 26]: 98
- Plant response rating, Nutsedge, Yellow [9, 23]: 30
- Plant response rating, Nutsedge, Yellow [9, 27]: 60
- Plant response rating, Nutsedge, Yellow [9, 24]: 0
- Plant response rating, Nutsedge, Yellow [9, 26]: 70
- Plant response rating, Panicum, Fall [10, 15]: 60
- Plant response rating, Panicum, Fall [10, 16]: 98
- Plant response rating, Panicum, Fall [10, 17]: 70
- Plant response rating, Panicum, Fall [10, 28]: 100
- Plant response rating, Panicum, Fall [10, 18]: 80
- Plant response rating, Panicum, Fall [10, 19]: 40
- Plant response rating, Panicum, Fall [10, 20]: 95
- Plant response rating, Panicum, Fall [10, 22]: 100
- Plant response rating, Surinam Grass [11, 23]: 70
- Plant response rating, Surinam Grass [11, 27]: 85
- Plant response rating, Surinam Grass [11, 24]: 5
- Plant response rating, Surinam Grass [11, 26]: 95
- Plant response rating, Velvetleaf [12, 23]: 65
- Plant response rating, Velvetleaf [12, 27]: 95
- Plant response rating, Velvetleaf [12, 24]: 30
- Plant response rating, Velvetleaf [12, 26]: 100
- Plant response rating, Waterhemp [13, 15]: 50
- Plant response rating, Waterhemp [13, 16]: 75
- Plant response rating, Waterhemp [13, 17]: 30
- Plant response rating, Waterhemp [13, 28]: 40
- Plant response rating, Waterhemp [13, 18]: 75
- Plant response rating, Waterhemp [13, 19]: 50
- Plant response rating, Waterhemp [13, 20]: 80
- Plant response rating, Waterhemp [13, 22]: 80
- Plant response rating, Poinsettia, Wild [14, 15]: 10
- Plant response rating, Poinsettia, Wild [14, 16]: 20
- Plant response rating, Poinsettia, Wild [14, 17]: 30
- Plant response rating, Poinsettia, Wild [14, 28]: 25
- Plant response rating, Poinsettia, Wild [14, 18]: 20
- Plant response rating, Poinsettia, Wild [14, 19]: 10
- Plant response rating, Poinsettia, Wild [14, 20]: 0
- Plant response rating, Poinsettia, Wild [14, 22]: 50

SMILES: Cc1ccc2ccccc2c1-c1c(OC(=O)OC(C)C)c(C)nn(C)c1=O [Compound 72]
- Plant response rating, Arrowleaf Sida [1, 15]: 75
- Plant response rating, Arrowleaf Sida [1, 16]: 35
- Plant response rating, Arrowleaf Sida [1, 17]: 80
- Plant response rating, Arrowleaf Sida [1, 28]: 85
- Plant response rating, Arrowleaf Sida [1, 18]: 90
- Plant response rating, Arrowleaf Sida [1, 19]: 70
- Plant response rating, Arrowleaf Sida [1, 20]: 20
- Plant response rating, Arrowleaf Sida [1, 22]: 65
- Plant response rating, Corn (corn (Zea mays); [15]): 10
- Plant response rating, Corn (corn (Zea mays); [16]): 0
- Plant response rating, Corn (corn (Zea mays); [17]): 20
- Plant response rating, Corn (corn (Zea mays); [28]): 0
- Plant response rating, Corn (corn (Zea mays); [18]): 30
- Plant response rating, Corn (corn (Zea mays); [19]): 0
- Plant response rating, Corn (corn (Zea mays); [20]): 0
- Plant response rating, Corn (corn (Zea mays); [22]): 0
- Plant response rating, Field Bindweed [2, 15]: 80
- Plant response rating, Field Bindweed [2, 16]: 0
- Plant response rating, Field Bindweed [2, 17]: 95
- Plant response rating, Field Bindweed [2, 28]: 65
- Plant response rating, Field Bindweed [2, 18]: 90
- Plant response rating, Field Bindweed [2, 19]: 70
- Plant response rating, Field Bindweed [2, 20]: 0
- Plant response rating, Field Bindweed [2, 22]: 90
- Plant response rating, Foxtail, Giant [3, 23]: 65
- Plant response rating, Foxtail, Giant [3, 27]: 70
- Plant response rating, Foxtail, Giant [3, 24]: 35
- Plant response rating, Foxtail, Giant [3, 26]: 80
- Plant response rating, Foxtail, Green [4, 23]: 35
- Plant response rating, Foxtail, Green [4, 27]: 65
- Plant response rating, Foxtail, Green [4, 24]: 30
- Plant response rating, Foxtail, Green [4, 26]: 70
- Plant response rating, Johnsongrass [5, 23]: 0
- Plant response rating, Johnsongrass [5, 27]: 35
- Plant response rating, Johnsongrass [5, 24]: 0
- Plant response rating, Johnsongrass [5, 26]: 35
- Plant response rating, Lambsquarters [6, 23]: 80
- Plant response rating, Lambsquarters [6, 27]: 100
- Plant response rating, Lambsquarters [6, 24]: 90
- Plant response rating, Lambsquarters [6, 26]: 100
- Plant response rating, Morningglory [7, 23]: 30
- Plant response rating, Morningglory [7, 27]: 80
- Plant response rating, Morningglory [7, 24]: 20
- Plant response rating, Morningglory [7, 26]: 95
- Plant response rating, Nightshade [8, 23]: 80
- Plant response rating, Nightshade [8, 27]: 100
- Plant response rating, Nightshade [8, 24]: 0
- Plant response rating, Nightshade [8, 26]: 100
- Plant response rating, Nutsedge, Yellow [9, 23]: 20
- Plant response rating, Nutsedge, Yellow [9, 27]: 30
- Plant response rating, Nutsedge, Yellow [9, 26]: 35
- Plant response rating, Panicum, Fall [10, 15]: 80
- Plant response rating, Panicum, Fall [10, 16]: 80
- Plant response rating, Panicum, Fall [10, 17]: 80
- Plant response rating, Panicum, Fall [10, 28]: 90
- Plant response rating, Panicum, Fall [10, 18]: 85
- Plant response rating, Panicum, Fall [10, 19]: 75
- Plant response rating, Panicum, Fall [10, 20]: 75
- Plant response rating, Panicum, Fall [10, 22]: 98
- Plant response rating, Surinam Grass [11, 23]: 40
- Plant response rating, Surinam Grass [11, 27]: 75
- Plant response rating, Surinam Grass [11, 24]: 5
- Plant response rating, Surinam Grass [11, 26]: 90
- Plant response rating, Velvetleaf [12, 23]: 40
- Plant response rating, Velvetleaf [12, 27]: 80
- Plant response rating, Velvetleaf [12, 24]: 50
- Plant response rating, Velvetleaf [12, 26]: 90
- Plant response rating, Waterhemp [13, 15]: 65
- Plant response rating, Waterhemp [13, 16]: 100
- Plant response rating, Waterhemp [13, 17]: 80
- Plant response rating, Waterhemp [13, 28]: 100
- Plant response rating, Waterhemp [13, 18]: 90
- Plant response rating, Waterhemp [13, 19]: 65
- Plant response rating, Waterhemp [13, 20]: 90
- Plant response rating, Waterhemp [13, 22]: 100
- Plant response rating, Poinsettia, Wild [14, 15]: 40
- Plant response rating, Poinsettia, Wild [14, 16]: 15
- Plant response rating, Poinsettia, Wild [14, 17]: 65
- Plant response rating, Poinsettia, Wild [14, 28]: 10
- Plant response rating, Poinsettia, Wild [14, 18]: 75
- Plant response rating, Poinsettia, Wild [14, 19]: 30
- Plant response rating, Poinsettia, Wild [14, 20]: 0
- Plant response rating, Poinsettia, Wild [14, 22]: 20
